Patent publication US20250320246A1, “3-AZASTEROID COMPOUNDS FOR THE TREATMENT OF DISEASES RELATED TO MITROCHONDRIAL FUNCTION” (NZP UK LIMITED, priority 2022, published 2025)

Test system: sporadic PD patient fibroblasts
Test: Cellular ATP levels in sporadic PD patient fibroblasts, Preliminary ATP assay
Assay type: cell-based, human
Conditions: Homo sapiens, Fibroblast, 24 h, % of vehicle treated sPD fibroblasts, 3 sporadic PD patients; for activity at 0.1 µM: 100 nM, read-out: Average ATP Response 100 nM; for activity at 1 µM: read-out: Average ATP Response 1 μM
Procedure: In some cases, a preliminary ATP protocol was used in which EC50 was not determined. The preliminary ATP protocol is generally as described in Mortiboys et al 2008. Briefly, fibroblasts were cultured and plated into white, clear-bottom 384 well plates at a concentration of 4000 cells per well in 50 μl of media volume. The plates are left overnight in an incubator to allow the fibroblasts to adhere to the plate surface. The following morning the Glucose based medium is replaced with 25 μl of Galactose based medium. The cells were then dosed with 100 nM and 1 μM concentrations of the compounds using a ECHO 550 liquid handling system. After dosing the wells are topped up with a further 25 μl of Galactose based medium and then left in an incubator for 24 hours. Following this incubation, the medium is removed from the plate and the wells are washed twice with sterile PBS. The wells are filled with 20 μl of Sterile PBS followed by 10 μl of Lysis solution from the ATPlite™ Luminescence ATP detection assay system (Perkin Elmer), including 14 cell free wells to use as blank controls. The plate is then placed on a rotary shaker for 10 mins at 700 rpm. Following the shaking 10 μl of ATP substrate solution (Perkin Elmer) is added to each well and a further 5 min of shaking. The plate is then incubated in the dark for 10 minutes prior to reading. Using a FLUOstar® Omega plate reader, luminescence intensity is recorded. Following the ATP assay the plates are immediately assayed for DNA content in a CyQUANT® assay.
Immediately following The ATP assay DNA content is assessed with the CyQUANT® NF Cell Proliferation Assay Kit (ThermoFisher). CyQUANT® buffer is prepared immediately before the assay and is comprised of 2 μl CyQUANT® dye per ml×1 HBSS solution. 10 μl of CyQUANT® buffer is added to each well. Cell plates were then incubated for 1 hour before being read on a FLUOStar® Plate reader with excitation at 497 nm and emission at 520 nm.
The ATP Quantification for each well is determined as set out above.

Compound	activity at 0.1 µM [%]	activity at 1 µM [%]
C[C@H](CCCC(=O)O)[C@H]1CC[C@H]2[C@@H]3[C@@H](O)C[C@@H]4CN(C(=O)OCc5ccccc5)CC[C@]4(C)[C@H]3CC[C@]12C [Compound 50b, N-(benzyloxycarbonyl)-3-aza-7β-hydroxy-24-homo-5β-cholan-25-oic acid]	101	99.8
C[C@H](CCC(=O)NCCS(=O)(=O)O)[C@H]1CC[C@H]2[C@@H]3[C@@H](O)C[C@@H]4CNCC[C@]4(C)[C@H]3CC[C@]12C [Compound 51a, N-(3-Aza-7β-hydroxy-5β-cholan-24-amide)-ethylsulfonic acid]	101	107
C[C@H](CCC(=O)NCC(=O)O)[C@H]1CC[C@H]2[C@@H]3[C@@H](O)C[C@@H]4CNCC[C@]4(C)[C@H]3CC[C@]12C [Compound 52a, N-(3-Aza-7β-hydroxy-5β-cholan-24-amide)-acetic acid]	106	110
C[C@H](CCC(=O)N[C@@H](COC(C)(C)C)C(=O)O)[C@H]1CC[C@H]2[C@@H]3[C@@H](O)C[C@@H]4CN(C)CC[C@]4(C)[C@H]3CC[C@]12C [Compound 53a, N-(3-Methyl-aza-7β-hydroxy-5β-cholan-24-oyl)-(2S)-2-amino-3-[(2-methylpropan-2-yl)oxy]propanoic acid]	109	102
C[C@H](CCC(=O)N[C@H](CC(=O)O)c1ccccc1)[C@H]1CC[C@H]2[C@@H]3[C@@H](O)C[C@@H]4CN(C)CC[C@]4(C)[C@H]3CC[C@]12C [Compound 54a, N-(3-Methyl-aza-7β-hydroxy-5β-cholan-24-oyl)-(R)-3-amino-3-phenylpropanoic acid]	109	107
C[C@H](CCC(=O)Nc1ccc(F)cc1)[C@H]1CC[C@H]2[C@@H]3[C@@H](O)C[C@@H]4CN(C)CC[C@]4(C)[C@H]3CC[C@]12C [Compound 55a, N-(3-Methyl-aza-7β-hydroxy-5β-cholan-24-oyl)-1-amino-4-fluorobenzene]	110	109
C[C@H](CCC(=O)N1CCOCC1)[C@H]1CC[C@H]2[C@@H]3[C@@H](O)C[C@@H]4CNCC[C@]4(C)[C@H]3CC[C@]12C [Compound 56a, N-(3-Aza-7β-hydroxy-5β-cholan-24-oyl)-morpholine]	109	100
C[C@H](CCC(=O)N[C@@H](CO)C(=O)O)[C@H]1CC[C@H]2[C@@H]3[C@@H](O)C[C@@H]4CNCC[C@]4(C)[C@H]3CC[C@]12C [Compound 57a, N-(3-Aza-7β-hydroxy-5β-cholan-24-oyl)-(S)-2-amino-3-hydroxypropanoic acid]	109	107
C[C@H](CCC(=O)NCC(F)C(=O)O)[C@H]1CC[C@H]2[C@@H]3[C@@H](O)C[C@@H]4CNCC[C@]4(C)[C@H]3CC[C@]12C (stereo partly drawn) [Compound 58a, N-(3-Aza-7β-hydroxy-5β-cholan-24-oyl)-3-amino-2-fluoropropanoic acid]	102	103
C[C@H](CCC(=O)N(C1CCCCC1)C1CCCCC1)[C@H]1CC[C@H]2[C@@H]3[C@@H](O)C[C@@H]4CN(C)CC[C@]4(C)[C@H]3CC[C@]12C [Compound 59a, N-(Cyclohexyl)-N-(3-methyl-aza-7β-hydroxy-5β-cholan-24-oyl)-cyclohexanamine]	106	99.7
C[C@H](CCC(=O)Nc1ccc(C(=O)O)cc1)[C@H]1CC[C@H]2[C@@H]3[C@@H](O)C[C@@H]4CNCC[C@]4(C)[C@H]3CC[C@]12C [Compound 60a, N-(3-Aza-7β-hydroxy-5β-cholan-24-oyl)-4-aminobenzoic acid]	102	102
CSCC[C@H](NC(=O)CC[C@@H](C)[C@H]1CC[C@H]2[C@@H]3[C@@H](O)C[C@@H]4CNCC[C@]4(C)[C@H]3CC[C@]12C)C(=O)O [Compound 61a, N-(3-Aza-7β-hydroxy-5β-cholan-24-oyl)-(S)-2-amino-4-(methylthio)butanoic acid]	105	108
C[C@H](CCC(=O)NCCC(=O)O)[C@H]1CC[C@H]2[C@@H]3[C@@H](O)C[C@@H]4CNCC[C@]4(C)[C@H]3CC[C@]12C [Compound 62a, N-(3-Aza-7β-hydroxy-5β-cholan-24-amide)-propanoic acid]	108	108
CC(C)OC(=O)c1ccc(NC(=O)CC[C@@H](C)[C@H]2CC[C@H]3[C@@H]4[C@@H](O)C[C@@H]5CNCC[C@]5(C)[C@H]4CC[C@]23C)cc1 [Compound 63a, N-(3-Aza-7β-hydroxy-5β-cholan-24-oyl)-(isopropyl-4-aminobenzoate)]	106	104
CC(C)[C@H](NC(=O)CC[C@@H](C)[C@H]1CC[C@H]2[C@@H]3[C@@H](O)C[C@@H]4CNCC[C@]4(C)[C@H]3CC[C@]12C)C(=O)O [Compound 65a, N-(3-Aza-7β-hydroxy-5β-cholan-24-oyl)-(S)-2-amino-3-methylbutanoic acid]	111	108
CC[C@H](C)[C@H](NC(=O)CC[C@@H](C)[C@H]1CC[C@H]2[C@@H]3[C@@H](O)C[C@@H]4CNCC[C@]4(C)[C@H]3CC[C@]12C)C(=O)O [Compound 66a, N-(3-Aza-7β-hydroxy-5β-cholan-24-oyl)-(2S,3S)-2-amino-3-methylpentanoic acid]	109	111
C[C@H](CCC(=O)N(C)CC(=O)O)[C@H]1CC[C@H]2[C@@H]3[C@@H](O)C[C@@H]4CNCC[C@]4(C)[C@H]3CC[C@]12C [Compound 67a, N-Methyl-N-(3-aza-7β-hydroxy-5β-cholan-24-oyl)-glycine]	108	107
C[C@H](NC(=O)CC[C@@H](C)[C@H]1CC[C@H]2[C@@H]3[C@@H](O)C[C@@H]4CNCC[C@]4(C)[C@H]3CC[C@]12C)C(=O)O [Compound 68a, N-(3-Aza-7β-hydroxy-5β-cholan-24-oyl)-(S)-2-aminopropanoic acid]	109	99
C[C@H](CCCC(=O)N[C@@H](CC(=O)O)C(=O)O)[C@H]1CC[C@H]2[C@@H]3[C@@H](O)C[C@@H]4CNCC[C@]4(C)[C@H]3CC[C@]12C [Compound 70b, N-(3-Aza-7β-hydroxy-25-homo-5β-cholan-25-oyl)-(S)-2-aminobutanedioic acid]	106	107
C[C@H](CCCC(=O)N[C@@H](COC(C)(C)C)C(=O)O)[C@H]1CC[C@H]2[C@@H]3[C@@H](O)C[C@@H]4CNCC[C@]4(C)[C@H]3CC[C@]12C [Compound 71b, N-(3-Aza-7β-hydroxy-25-homo-5β-cholan-25-oyl)-(2S)-2-amino-3-[(2-methylpropan-2-yl)oxy]propanoic acid]	106	104
C[C@H](CCCC(=O)NCCS(=O)(=O)O)[C@H]1CC[C@H]2[C@@H]3[C@@H](O)C[C@@H]4CNCC[C@]4(C)[C@H]3CC[C@]12C [Compound 72b, N-(3-Aza-7β-hydroxy-25-homo-5β-cholan-25-amide)-ethylsulfonic acid]	102	112
C[C@H](CCCC(=O)N[C@@H](Cc1ccccc1)C(=O)O)[C@H]1CC[C@H]2[C@@H]3[C@@H](O)C[C@@H]4CNCC[C@]4(C)[C@H]3CC[C@]12C [Compound 73b, N-(3-Aza-7β-hydroxy-25-homo-5β-cholan-25-oyl)-(S)-2-amino-3-phenylpropanoic acid]	99.6	100
CC(CC(=O)O)NC(=O)CCC[C@@H](C)[C@H]1CC[C@H]2[C@@H]3[C@@H](O)C[C@@H]4CNCC[C@]4(C)[C@H]3CC[C@]12C (stereo partly drawn) [Compound 74b, N-(3-Aza-7β-hydroxy-25-homo-5β-cholan-25-oyl)-3-aminobutanoic acid]	103	98.5
